Results taken from patent US20120071536A1, “N-[(2-AZABICYCLO[2.1.1]HEX-1-YL)-ARYL-METHYL]-BENZAMIDE DERIVATIVES, PREPARATION THEREOF, AND THERAPEUTIC USE THEREOF” (SANOFI, priority 2009, published 2012).
Structures can show the parent of a compound that is named as a salt.

How the values were obtained:
[1] = biological target: T1, native human transporter GlyT1 (Homo sapiens, UniProt P48067); experiment: Uptake of [14C]glycine in SK-N-MC cells expressing the native human transporter GlyT1; type: cell-based; conditions: 10 μM [14C]glycine, 10 min at 37° C., pH 7.4, read-out: IC50 (concentration of the compound which reduces by 50% the specific uptake of glycine)
T1 construct: expressing the native human transporter GlyT1; endogenous in cells; host or cells: SK-N-MC cells (human neuroepithelial cells)
T1 sequence (P48067 1-706): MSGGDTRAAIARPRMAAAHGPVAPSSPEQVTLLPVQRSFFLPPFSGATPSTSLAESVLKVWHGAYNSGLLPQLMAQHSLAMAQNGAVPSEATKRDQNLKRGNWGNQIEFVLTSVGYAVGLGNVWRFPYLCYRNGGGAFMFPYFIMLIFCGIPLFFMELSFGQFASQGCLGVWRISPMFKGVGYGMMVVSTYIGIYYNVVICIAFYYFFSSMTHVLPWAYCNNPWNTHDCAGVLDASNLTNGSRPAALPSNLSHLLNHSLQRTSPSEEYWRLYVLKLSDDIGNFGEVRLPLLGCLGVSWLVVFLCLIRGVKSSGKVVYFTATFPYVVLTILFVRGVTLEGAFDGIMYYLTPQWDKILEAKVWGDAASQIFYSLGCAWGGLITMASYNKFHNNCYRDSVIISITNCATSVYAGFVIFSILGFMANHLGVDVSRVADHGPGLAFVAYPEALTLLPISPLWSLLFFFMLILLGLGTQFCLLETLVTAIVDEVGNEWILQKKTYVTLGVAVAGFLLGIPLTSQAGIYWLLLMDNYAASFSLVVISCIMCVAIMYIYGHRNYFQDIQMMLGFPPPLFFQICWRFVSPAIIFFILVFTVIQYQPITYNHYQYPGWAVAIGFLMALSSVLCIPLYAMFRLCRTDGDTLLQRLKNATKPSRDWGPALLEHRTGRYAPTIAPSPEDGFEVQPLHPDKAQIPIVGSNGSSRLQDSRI
Experimental: Study of Glycine Transportation in SK-N-MC Cells Expressing the Native Human Transporter GlyT1.
The uptake of [^14C]glycine is studied in SK-N-MC cells (human neuroepithelial cells) expressing the native human transporter GlyT1 by measuring the radioactivity incorporated in the presence or absence of the test compound. The cells are cultured as a monolayer for 48 hours in plates pretreated with 0.02% fibronectin. On the day of the experiment, the culture medium is removed and the cells are washed with Krebs-HEPES (4-(2-hydroxyethyl)piperazine-1-ethanesulphonic acid) buffer at pH 7.4. After preincubation for 10 minutes at 37° C. in the presence either of buffer (control batch) or of test compound at various concentrations or of 10 mM of glycine (determination of the non-specific uptake), 10 μM of [^14C]glycine (specific activity 112 mCi/mmol) are subsequently added. Incubation is continued for 10 min at 37° C. and the reaction is halted by washing twice with pH 7.4 Krebs-HEPES buffer. The radioactivity incorporated by the cells is then estimated after adding 100 μl of liquid scintillant and stirring for 1 h. Counting is carried out on a Microbeta Tri-Lux™ counter. The effectiveness of the compound is determined by the IC50, the concentration of the compound which reduces by 50% the specific uptake of glycine, defined by the difference in radioactivity incorporated by the control batch and the batch which received the 10 mM glycine.

| Compound | IC50 [1] | melting point |
| --- | --- | --- |
| O=C(NC(c1ccccc1)C12CC(CN1CC(F)(F)F)C2)c1c(Cl)ccc(C(F)(F)F)c1Cl (racemic) [Compound 23, 2,6-Dichloro-N-{(phenyl)[2-(2,2,2-trifluoroethyl)-2-azabicyclo[2.1.1]hex-1-yl]methyl}-3-(trifluoromethyl)benzamide] | 300 nM | 82 to 83 °C |
| CC(C)(O)CN1CC2CC1(C(NC(=O)c1c(Cl)ccc(C(F)(F)F)c1Cl)c1ccccc1)C2 (racemic) [Compound 22] | 110 nM | – |
| CSc1ccc(Cl)c(C(=O)NC(c2ccccc2)C23CC(CN2)C3)c1 (racemic) [Compound 11, N-[(2-Azabicyclo[2.1.1]hex-1-yl)(phenyl)methyl]-2-chloro-5-(methylsulphanyl)-benzamide] | 160 nM | 115 to 117 °C |
| Nc1ccc(C(NC(=O)c2cccc(C(F)(F)F)c2Cl)C23CC(CN2)C3)cc1 (racemic) [Compound 1, N-[(4-Aminophenyl)(2-azabicyclo[2.1.1]hex-1-yl)methyl]-2-chloro-3-(trifluoromethyl)-benzamide] | 1100 nM | – |

Stronger by IC50 [1], values ahead:

| IC50 [1] | melting point | Compound |
| --- | --- | --- |
| 26 nM | – | O=C(NC(c1ccccc1)C12CC(CN1)C2)c1cccc(C(F)(F)F)c1Cl (racemic) [Compound 5, N-[(2-azabicyclo[2.1.1]hex-1-yl)(phenyl)methyl]-2-chloro-3-(trifluoromethyl)benzamide hydrochloride (1:1)] |
| 21 nM | 168.5 to 169.5 °C | CN1CC2CC1(C(NC(=O)c1cccc(C(F)(F)F)c1Cl)c1ccccc1)C2.Cl (racemic) [Compound 18, 2-Chloro-N-[(2-methyl-2-azabicyclo[2.1.1]hex-1-yl)(phenyl)methyl]-3-(trifluoromethyl)benzamide hydrochloride (1:1)] |
| 1.6 nM | – | CCc1ccccc1C(=O)NC(c1ccccc1)C12CC(CN1CC)C2 (racemic) [Compound 31, 2-Ethyl-N-[(2-ethyl-2-azabicyclo[2.1.1]hex-1-yl)(phenyl)methyl]benzamide] |
